Measured values: patent publication US12435068B2, “Anthelmintic compounds” (Elanco Animal Health GmBh, priority 2018, dated 2025)
Converted amounts (≈) assume the structure as drawn.

Tests used:
[1] = tested on: Dirofilaria immitis microfilariae; assay: In Vitro Assay 2: Dirofilaria immitis microfilariae (DIROIM L1) motility; assay type: cell-based; details: 72 h, read-out: EC50 ppm
[2] = biological target: C. elegans Slo-1a (Caenorhabditis elegans, UniProt Q95V25)
C. elegans Slo-1a, sequence (Q95V25 whole entry): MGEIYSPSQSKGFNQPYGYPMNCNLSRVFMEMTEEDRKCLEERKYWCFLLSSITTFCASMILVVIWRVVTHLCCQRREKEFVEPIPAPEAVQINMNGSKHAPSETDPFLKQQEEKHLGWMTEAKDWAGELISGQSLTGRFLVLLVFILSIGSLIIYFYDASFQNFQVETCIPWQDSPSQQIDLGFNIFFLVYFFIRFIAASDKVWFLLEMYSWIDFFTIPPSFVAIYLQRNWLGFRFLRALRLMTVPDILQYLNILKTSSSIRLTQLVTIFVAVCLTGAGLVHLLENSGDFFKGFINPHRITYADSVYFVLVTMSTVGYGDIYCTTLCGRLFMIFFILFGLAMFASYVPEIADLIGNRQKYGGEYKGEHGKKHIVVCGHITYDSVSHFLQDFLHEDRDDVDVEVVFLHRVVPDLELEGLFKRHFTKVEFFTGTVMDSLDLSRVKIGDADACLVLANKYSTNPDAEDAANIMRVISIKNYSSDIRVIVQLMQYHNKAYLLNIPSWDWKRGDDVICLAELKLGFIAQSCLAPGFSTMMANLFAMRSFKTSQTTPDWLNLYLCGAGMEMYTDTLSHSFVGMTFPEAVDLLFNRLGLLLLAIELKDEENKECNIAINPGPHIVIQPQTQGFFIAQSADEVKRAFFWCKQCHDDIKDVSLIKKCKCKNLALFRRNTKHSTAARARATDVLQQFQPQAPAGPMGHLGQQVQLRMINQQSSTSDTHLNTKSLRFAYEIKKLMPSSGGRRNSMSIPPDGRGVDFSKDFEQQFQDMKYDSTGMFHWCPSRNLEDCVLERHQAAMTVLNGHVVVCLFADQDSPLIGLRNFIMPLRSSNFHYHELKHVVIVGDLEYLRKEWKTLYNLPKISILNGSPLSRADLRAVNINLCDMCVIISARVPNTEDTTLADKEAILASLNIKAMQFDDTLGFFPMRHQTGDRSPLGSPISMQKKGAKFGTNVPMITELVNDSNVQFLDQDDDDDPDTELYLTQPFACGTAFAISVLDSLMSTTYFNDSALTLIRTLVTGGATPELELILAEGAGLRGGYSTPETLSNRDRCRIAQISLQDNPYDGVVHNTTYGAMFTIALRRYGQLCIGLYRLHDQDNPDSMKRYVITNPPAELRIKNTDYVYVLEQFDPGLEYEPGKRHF
Procedure: Cells were cultured at 37° C. and 5% CO2 in MEMalpha with Gutamax I (Invitrogen, Nr.: 32571), supplemented with 10% (v/v) heat inactivated fetal bovine serum (Invitrogen, Nr.: 10500), G418 (1 mg/ml, Invitrogen, Nr.: 10131). Cells were detached using Accutase (Sigma, Nr.: A6964).
Membrane Potential Measurements
Laboratory compound testing was performed on 384-well microtiter plates (MTPs, Greiner, Nr.: 781092). 8000 cells/well were plated onto 384-well MTPs and cultured for 20 to 24 hours at 37° C. and 5% CO2. After removal of the cell culture medium, the cells were washed once with tyrode (150 mM NaCl, 0.3 mM KCl, 2 mM CaCl2, 1 mM MgCl2, 0.8 mM NaH2PO4, 5 mM Glucose, 28 mM Hepes, pH 7.4) and then loaded with the voltage sensitive dye of the Membrane Potential Assay Kit diluted in tyrode for 1 h at room temperature.
After starting the measurement of fluorescence using a FLIPR Tetra (Molecular Devices, Exc. 510-545 nm, Emm. 565-625 nm), test compounds were added followed by the addition of KCl tyrode (final assay concentration: 70 mM KCl, 2 mM CaCl2, 1 mM MgCl2, 0.8 mM NaH2PO4, 5 mM Glucose, 28 mM Hepes, pH 7.4, including the voltage sensitive dye). The measurement was completed after 7 minutes.

CC(C)c1c(C(=O)N[C@H]2CCc3ccccc32)ccc2c1nnn2-c1cccc(Cl)c1 [Example Compound S4-8, 1-(3-Chlorophenyl)-N-[(1S)-2,3-dihydro-1H-inden-1-yl]-4-(propan-2-yl)-1H-benzotriazole-5-carboxamide]
EC50 [1]: > 2 µg/mL | EC50 [2]: 10000 nM

CC(C)c1c(C(=O)N[C@H]2CCc3ccccc32)ccc2c1nnn2-c1cccc(C(F)(F)F)c1 [Example Compound S4-9, N-[(1S)-2,3-Dihydro-1H-inden-1-yl]-4-(propan-2-yl)-1-[3-(trifluoromethyl)phenyl]-1H-benzotriazole-5-carboxamide]
EC50 [1]: > 2 µg/mL | EC50 [2]: 1580 nM

CC(C)c1c(C(=O)N[C@H]2CCc3ccccc32)ccc2c1nnn2-c1ccccc1Cl [Example Compound S4-10, 1-(2-Chlorophenyl)-N-[(1S)-2,3-dihydro-1H-inden-1-yl]-4-(propan-2-yl)-1H-benzotriazole-5-carboxamide]
EC50 [1]: > 2 µg/mL | EC50 [2]: 3160 nM

CN(C)c1c(C(=O)N[C@H]2CCOc3ccccc32)cnc2c1n(C)c(=O)n2-c1cc(Cl)cc(Cl)c1 [Example Compound S5-1, 3-(3,5-Dichlorophenyl)-N-[(4S)-3,4-dihydro-2H-chromen-4-yl]-7-(dimethylamino)-1-methyl-2-oxo-2,3-dihydro-1H-imidazo[4,5-b]pyridine-6-carboxamide]
EC50 [1]: 0.38 µg/mL (≈ 0.742 µM) | EC50 [2]: 100 nM

O=C(N[C@H]1CCOc2ccccc21)c1ccc2c(-c3cccc(Cl)c3Cl)cccc2c1 [Example Compound S6-1, 5-(2,3-Dichlorophenyl)-N-[(4S)-3,4-dihydro-2H-chromen-4-yl]naphthalene-2-carboxamide]
EC50 [1]: 0.63 µg/mL (≈ 1.41 µM) | EC50 [2]: 79.4 nM

O=C(N[C@H]1CCOc2ccccc21)c1ccc2c(-c3cccc(Cl)c3Cl)nccc2c1 [Example Compound S6-2, 1-(2,3-Dichlorophenyl)-N-[(4S)-3,4-dihydro-2H-chromen-4-yl]isoquinoline-6-carboxamide]
EC50 [1]: > 2 µg/mL | EC50 [2]: 794 nM

O=C(N[C@H]1CCOc2ccccc21)c1cnc2c(ccc(=O)n2-c2cc(Cl)cc(Cl)c2)c1 [Example Compound S7-1, 8-(3,5-Dichlorophenyl)-N-[(4S)-3,4-dihydro-2H-chromen-4-yl]-7-oxo-7,8-dihydro-1,8-naphthyridine-3-carboxamide]
EC50 [1]: 1.95 µg/mL (≈ 4.18 µM) | EC50 [2]: 200 nM

CN(C)c1c(C(=O)N[C@H]2CCOc3ccccc32)ncc2c1ccc(=O)n2Cc1ccc(Cl)cc1 [Example Compound S7-2, 1-(4-Chlorobenzyl)-N-[(4S)-3,4-dihydro-2H-chromen-4-yl]-5-(dimethylamino)-2-oxo-1,2-dihydro 1,7-naphthyridine-6-carboxamide]
EC50 [1]: > 2 µg/mL | EC50 [2]: 1000 nM

O=C(N[C@H]1CCOc2ccccc21)c1cc2cccc(-c3cccc(Cl)c3Cl)c2oc1=O [Example Compound S8a-3, 8-(2,3-Dichlorophenyl)-N-[(4S)-3,4-dihydro-2H-chromen-4-yl]-2-oxo-2H-chromene-3-carboxamide]
EC50 [1]: 0.25 µg/mL (≈ 0.536 µM) | EC50 [2]: 50.1 nM

O=C(N[C@H]1CCOc2ccccc21)C1=Cc2cccc(-c3cc(Cl)cc(Cl)c3)c2OC1 [Example Compound S8a-4, 8-(3,5-Dichlorophenyl)-N-[(4S)-3,4-dihydro-2H-chromen-4-yl]-2H-chromene-3-carboxamide]
EC50 [1]: > 2 µg/mL | EC50 [2]: 20 nM

O=C(N[C@H]1CCOc2ccccc21)c1c(N2CCOCC2)c2cccc(-c3cc(Cl)cc(Cl)c3)c2[nH]c1=O [Example Compound S8a-6, 8-(3,5-Dichlorophenyl)-N-[(4S)-3,4-dihydro-2H-chromen-4-yl]-4-(morpholin-4-yl)-2-oxo-1,2-dihydroquinoline-3-carboxamide]
EC50 [1]: 0.64 µg/mL (≈ 1.16 µM) | EC50 [2]: 39.8 nM

O=C(N[C@H]1CCOc2ccccc21)c1ccc2nc(-c3cccc(C(F)(F)F)c3Cl)cnc2c1 [Example Compound S9-1, 2-[2-Chloro-3-(trifluoromethyl)phenyl]-N-[(4S)-3,4-dihydro-2H-chromen-4-yl]quinoxaline-6-carboxamide]
EC50 [1]: 0.52 µg/mL (≈ 1.07 µM) | EC50 [2]: 20 nM
